# Patent US20210380586A1, “2-INDOLYL IMIDAZO[4,5-D]PHENANTHROLINE POLYMORPHS AND COMPOSITIONS REGARDING THE SAME” (Aptose Biosciences Inc., priority 2020, published 2021)
# Experiment: Dynamic vapor sorption (DVS)
# Assay type: physicochemical
# Description: The mass uptake of 12% is equal to three equivalents of water; however, the material was not fully dry yet after drying at 0% RH for 24 hours. […] The water uptake and release is not stepwise, and no indication of other hydrates with different ratios of water is present.
# Compound I-hydrate Form 2 was also analyzed by DVS (FIG. 14). Form 2 steadily gained 1.1 wt % from 5-95% RH. It underwent complete desorption with minor hysteresis.
compound,measurement,setting,value
Cc1[nH]c2ccc(F)cc2c1-c1nc2c3cccnc3c3ncccc3c2[nH]1 [Compound I-hydrate Form 2],XRPD of the post-DVS solids,after sorption to 95% RH and desorption to 5% RH,No form change
same,DVS total mass uptake,continuous isothermal adsorption of water after drying at 0% RH for 24 hours (FIGS. 7 and 8),12%
same,DVS weight gain,from 5-95% RH,1.1 wt %
same,stability in DVS de-sorption cycle,stable signal down to 10% RH,very stable
